This passage reports IC50 results from US10072001B2, “Tank-binding kinase inhibitor compounds” (Gilead Sciences, Inc., priority 2014, dated 2018).

One test has as its target TBK1 (Homo sapiens (Human), UniProt Q9UHD2). Kind of test: TR-FRET kinase assay, TBK1. The settings on record: read-out: TBK1-IC50; full length recombinant TBK1 2.5 nM, 2x Km ATP, 1 μM peptide, 240 min at 25° C.; geometric mean of minimum four determinations. In general terms: Time-resolved FRET reads energy transfer from a long-lived donor to a nearby acceptor.
Another test deals with IKKε (Homo sapiens (Human), UniProt Q14164). The experiment in a line: TR-FRET kinase assay, IKKε. The format is biochemical. Conditions: full length recombinant IKKε 0.3 nM, 2x Km ATP, 1 μM peptide, 240 min at 25° C.; geometric mean of minimum four determinations. The text has this: Biological Assay for TBK1 and IKKs:

A word on the IC50: it is the concentration that inhibits the measured activity by half.

IKKε, sequence (Q14164 whole entry): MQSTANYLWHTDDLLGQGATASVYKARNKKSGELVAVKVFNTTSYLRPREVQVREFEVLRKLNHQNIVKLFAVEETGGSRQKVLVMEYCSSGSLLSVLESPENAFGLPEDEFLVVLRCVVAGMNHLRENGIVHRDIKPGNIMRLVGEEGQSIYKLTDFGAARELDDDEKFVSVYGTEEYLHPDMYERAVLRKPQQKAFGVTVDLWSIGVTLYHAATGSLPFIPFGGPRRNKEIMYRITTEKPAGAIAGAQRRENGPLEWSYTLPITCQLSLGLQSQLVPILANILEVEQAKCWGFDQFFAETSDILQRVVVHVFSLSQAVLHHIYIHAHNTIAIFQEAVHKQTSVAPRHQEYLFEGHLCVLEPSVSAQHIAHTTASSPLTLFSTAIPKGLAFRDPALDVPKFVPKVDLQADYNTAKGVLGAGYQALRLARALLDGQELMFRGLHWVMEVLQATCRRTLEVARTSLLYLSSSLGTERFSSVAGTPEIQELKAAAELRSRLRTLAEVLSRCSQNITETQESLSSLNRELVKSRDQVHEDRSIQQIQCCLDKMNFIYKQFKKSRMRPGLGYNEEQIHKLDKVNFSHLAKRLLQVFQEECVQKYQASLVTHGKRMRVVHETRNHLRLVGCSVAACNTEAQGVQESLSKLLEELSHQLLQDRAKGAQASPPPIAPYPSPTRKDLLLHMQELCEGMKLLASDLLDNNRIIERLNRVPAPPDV
TBK1, sequence (Q9UHD2 whole entry): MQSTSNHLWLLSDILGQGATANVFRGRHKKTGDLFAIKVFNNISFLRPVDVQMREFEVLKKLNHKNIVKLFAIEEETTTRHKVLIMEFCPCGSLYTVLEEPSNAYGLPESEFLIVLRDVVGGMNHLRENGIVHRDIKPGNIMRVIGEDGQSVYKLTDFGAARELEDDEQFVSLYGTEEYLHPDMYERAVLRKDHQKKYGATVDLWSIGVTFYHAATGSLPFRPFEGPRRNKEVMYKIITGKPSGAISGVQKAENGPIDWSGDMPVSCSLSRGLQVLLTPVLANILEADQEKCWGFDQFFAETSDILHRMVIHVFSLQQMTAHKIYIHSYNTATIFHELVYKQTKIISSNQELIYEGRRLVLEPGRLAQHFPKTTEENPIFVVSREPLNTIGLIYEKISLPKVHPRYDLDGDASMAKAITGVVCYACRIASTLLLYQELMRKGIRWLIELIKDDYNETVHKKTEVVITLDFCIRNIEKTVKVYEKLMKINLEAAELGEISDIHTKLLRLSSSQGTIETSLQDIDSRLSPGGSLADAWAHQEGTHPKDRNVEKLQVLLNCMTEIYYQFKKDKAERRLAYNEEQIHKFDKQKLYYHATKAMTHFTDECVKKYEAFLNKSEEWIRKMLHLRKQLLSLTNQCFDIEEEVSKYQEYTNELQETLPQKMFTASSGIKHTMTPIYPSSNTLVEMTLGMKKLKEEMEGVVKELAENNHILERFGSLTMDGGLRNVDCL

Turning to `N#Cc1cc(-c2ncnc3[nH]c(-c4ccc(N5CCOCC5)cc4)cc23)ccc1CN1CCOCC1` [Example 112, 2-(morpholinomethyl)-5-(6-(4-morpholinophenyl)-7H-pyrrolo[2,3-d]pyrimidin-4-yl)benzonitrile], the concentration for half-maximal inhibition (IC50) turned out to be 19.6 nM at TBK1 and 85 nM at IKKε.

In the case of `N#Cc1cc(-c2ncnc3[nH]c(-c4ccc(OC(F)(F)F)cc4)cc23)ccc1OC1CCN(C(=O)CO)CC1` [Example 128, 2-((1-(2-hydroxyacetyl)piperidin-4-yl)oxy)-5-(6-(4-(trifluoromethoxy)phenyl)-7H-pyrrolo[2,3-d]pyrimidin-4-yl)benzonitrile], the IC50 amounted to 4.21 nM on TBK1 and 13.6 nM on IKKε.

Turning to `N#Cc1cc(-c2ncnc3[nH]c(-c4ccc(C(=O)N5CCOCC5)cc4)cc23)ccc1OC1CCN(C(=O)CO)CC1` [Example 160, 2-((1-(2-Hydroxyacetyl)piperidin-4-yl)oxy)-5-(6-(4-(morpholine-4-carbonyl)phenyl)-7H-pyrrolo[2,3-d]pyrimidin-4-yl)benzonitrile], the 50% inhibitory concentration (IC50) on TBK1 worked out at 1.32 nM; on IKKε, 2.33 nM.

In the case of `N#Cc1cc(-c2ccnc3[nH]c(C4=CCNC4)cc23)ccc1OC1CCOCC1` [Example 37, 5-(2-(2,5-dihydro-1H-pyrrol-3-yl)-1H-pyrrolo[2,3-b]pyridin-4-yl)-2-((tetrahydro-2H-pyran-4-yl)oxy)benzonitrile], the results for the 50% inhibitory concentration (IC50) on TBK1 and on IKKε were 13.4 nM and 46.3 nM, respectively.

Regarding `O=C1NCc2cc(-c3ncnc4[nH]c(-c5ccc(N6CCOCC6)cc5)cc34)ccc21` [Example 221, 5-(6-(4-morpholinophenyl)-7H-pyrrolo[2,3-d]pyrimidin-4-yl)isoindolin-1-one], the IC50 at TBK1 and on IKKε was 1000 nM throughout.

`N#Cc1cc(-c2ncnc3[nH]c(-c4ccc(N5CCOCC5)cc4)cc23)ccc1OC1CCN(C(=O)CO)CC1` [Example 220, 2-((1-(2-hydroxyacetyl)piperidin-4-yl)oxy)-5-(6-(4-morpholinophenyl)-7H-pyrrolo[2,3-d]pyrimidin-4-yl)benzonitrile]: the 50% inhibitory concentration (IC50) was determined as 0.503 nM at TBK1 and 1.48 nM on IKKε.

For `N#Cc1cc(-c2ncnc3[nH]c(-c4ccc(C(=O)N5CCOCC5)cc4)cc23)ccc1OC1CCOCC1` [Example 186, 5-(6-(4-(morpholine-4-carbonyl)phenyl)-7H-pyrrolo[2,3-d]pyrimidin-4-yl)-2-((tetrahydro-2H-pyran-4-yl)oxy)benzonitrile], the values for the concentration for half-maximal inhibition (IC50) on TBK1 and on IKKε were 1.62 nM and 4.96 nM, respectively.

As for `CC(C)(O)c1ccc(-c2cc3c(-c4ccc(CN5CCOCC5)c(C#N)c4)ncnc3[nH]2)cc1` [Example 111, 5-(6-(4-(2-hydroxypropan-2-yl)phenyl)-7H-pyrrolo[2,3-d]pyrimidin-4-yl)-2-(morpholinomethyl)benzonitrile], the 50% inhibitory concentration (IC50) on TBK1 is 36.9 nM; at IKKε, 279 nM.

Take `N#Cc1cc(-c2ncnc3[nH]c(-c4ccc(C5CCN(CC(F)(F)F)CC5)cc4)nc23)ccc1OC1CCNCC1` [Example 261, 2-(piperidin-4-yloxy)-5-(8-(4-(1-(2,2,2-trifluoroethyl)piperidin-4-yl)phenyl)-9H-purin-6-yl)benzonitrile]: the values for the IC50 at TBK1 and at IKKε were 37.1 nM and 96 nM, respectively.

For the molecule `N#Cc1cc(-c2ccnc3[nH]c(-c4cnn(C5CCOCC5)c4)cc23)ccc1OC1CCOCC1` [Example 51, 5-(2-(1-(tetrahydro-2H-pyran-4-yl)-1H-pyrazol-4-yl)-1H-pyrrolo[2,3-b]pyridin-4-yl)-2-((tetrahydro-2H-pyran-4-yl)oxy)benzonitrile], the figures for the 50% inhibitory concentration (IC50) on TBK1 and on IKKε were 3.54 nM and 2.98 nM, respectively.

`N#Cc1cc(-c2ncnc3[nH]c(-c4ccc(N5CCNCC5)cc4)cc23)ccc1OC1CCOCC1` [Example 200, 5-(6-(4-(piperazin-1-yl)phenyl)-7H-pyrrolo[2,3-d]pyrimidin-4-yl)-2-((tetrahydro-2H-pyran-4-yl)oxy)benzonitrile]: the figures for the IC50 at TBK1 and on IKKε were 0.644 nM and 1.03 nM, respectively.

On to `N#Cc1cc(-c2ccnc3[nH]c(-c4ccc(N5CCOCC5)cc4)cc23)ccc1OC1CN(C(=O)CO)C1` [Example 154, 2-((1-(2-hydroxyacetyl)azetidin-3-yl)oxy)-5-(2-(4-morpholinophenyl)-1H-pyrrolo[2,3-b]pyridin-4-yl)benzonitrile], for which the figures for the IC50 at TBK1 and at IKKε were 32.4 nM and 146 nM, respectively.

As to `N#Cc1cc(-c2ccnc3[nH]c(C4=CCN(C(=O)CO)C4)cc23)ccc1OC1CCOCC1` [Example 182, 5-(2-(1-(2-hydroxyacetyl)-2,5-dihydro-1H-pyrrol-3-yl)-1H-pyrrolo[2,3-b]pyridin-4-yl)-2-((tetrahydro-2H-pyran-4-yl)oxy)benzonitrile], the results for the half-maximal inhibitory concentration (IC50) at TBK1 and on IKKε were 14.8 nM and 35.5 nM, respectively.

`N#Cc1cc(-c2ccnc3[nH]c(-c4ccc(N5CCOCC5)cc4)cc23)ccc1O[C@@H]1CCN(CC(F)F)C1` [Example 31, (R)-2-((1-(2,2-difluoroethyl)pyrrolidin-3-yl)oxy)-5-(2-(4-morpholinophenyl)-1H-pyrrolo[2,3-b]pyridin-4-yl)benzonitrile]: the IC50 worked out at 19.1 nM on TBK1 and 59.2 nM at IKKε.

Turning to `COc1cc(-c2cc3c(-c4ccc(OC5CCN(C(=O)CO)CC5(F)F)c(C#N)c4)ncnc3[nH]2)ccc1N1CCN(C2COC2)CC1` (stereo not drawn) [Example 141, 2-((3,3-difluoro-1-(2-hydroxyacetyl)piperidin-4-yl)oxy)-5-(6-(3-methoxy-4-(4-(oxetan-3-yl)piperazin-1-yl)phenyl)-7H-pyrrolo[2,3-d]pyrimidin-4-yl)benzonitrile], the IC50 was found to be 0.763 nM on TBK1 and 0.687 nM on IKKε.

Consider `CN1CCN(c2ccc(-c3nc4c(-c5ccc(OC6CCOCC6)c(C#N)c5)ncnc4[nH]3)cc2)CC1` [Example 212, 5-(8-(4-(4-methylpiperazin-1-yl)phenyl)-9H-purin-6-yl)-2-((tetrahydro-2H-pyran-4-yl)oxy)benzonitrile], for which the concentration for half-maximal inhibition (IC50) turned out to be 1.14 nM at TBK1 and 1.08 nM at IKKε.

For the molecule `N#Cc1cc(-c2ncnc3[nH]c(-c4ccc(=O)[nH]c4)cc23)ccc1OC1CCOCC1` [Example 183, 5-(6-(6-oxo-1,6-dihydropyridin-3-yl)-7H-pyrrolo[2,3-d]pyrimidin-4-yl)-2-((tetrahydro-2H-pyran-4-yl)oxy)benzonitrile], the values for the IC50 on TBK1 and on IKKε were 18.9 nM and 34.7 nM, respectively.

As for `N#Cc1cc(-c2ncnc3[nH]c(-c4ccc(N5CCOCC5)cc4)cc23)ccc1OC1CC2(COC2)C1` [Example 164, 2-(2-Oxaspiro[3.3]heptan-6-yloxy)-5-(6-(4-morpholinophenyl)-7H-pyrrolo[2,3-d]pyrimidin-4-yl)benzonitrile], the half-inhibitory concentration (IC50) on TBK1 is 56.1 nM; on IKKε it was 95.1 nM.

In the case of `CC(C)NC(=O)c1cc2c(-c3ccc(OC4CCOCC4)c(C#N)c3)ccnc2[nH]1` [Example 60, 4-(3-cyano-4-((tetrahydro-2H-pyran-4-yl)oxy)phenyl)-N-isopropyl-1H-pyrrolo[2,3-b]pyridine-2-carboxamide], the 50% inhibitory concentration (IC50) at TBK1 was determined as 63.8 nM; on IKKε, 44.5 nM.

For the molecule `N#Cc1cc(-c2ncnc3[nH]c(-c4ccc(N5CCOCC5)c(F)c4)cc23)ccc1OC1CCOCC1` [Example 156, 5-(6-(3-fluoro-4-morpholinophenyl)-7H-pyrrolo[2,3-d]pyrimidin-4-yl)-2-((tetrahydro-2H-pyran-4-yl)oxy)benzonitrile], the IC50 was 2.78 nM on TBK1 and 14.3 nM at IKKε.

For the molecule `N#Cc1cc(-c2ccnc3[nH]c(-c4ccc(N5CCOCC5)cc4)cc23)ccc1O[C@@H]1CCN(C2COC2)C1` [Example 87, (R)-5-(2-(4-morpholinophenyl)-1H-pyrrolo[2,3-b]pyridin-4-yl)-2-((1-(oxetan-3-yl)pyrrolidin-3-yl)oxy)benzonitrile], the IC50 came out at 26.8 nM at TBK1 and 63 nM at IKKε.

As for `N#CCC(=O)N1CC[C@H](Oc2ccc(-c3ccnc4[nH]c(-c5ccc(N6CCOCC6)cc5)cc34)cc2C#N)C1` [Example 24, (S)-2-((1-(2-cyanoacetyl)pyrrolidin-3-yl)oxy)-5-(2-(4-morpholinophenyl)-1H-pyrrolo[2,3-b]pyridin-4-yl)benzonitrile], the IC50 at TBK1 came to 56.8 nM; on IKKε, 321 nM.

`COc1ccc(-c2ccnc3[nH]c(-c4ccc(N5CCOCC5)cc4)cc23)cc1C#N` [Example 34, 2-methoxy-5-(2-(4-morpholinophenyl)-1H-pyrrolo[2,3-b]pyridin-4-yl)benzonitrile]: the half-inhibitory concentration (IC50) was 89.8 nM on TBK1 and above 1000 nM at IKKε.

Take `N#Cc1cc(-c2ncnc3[nH]c(-c4ccc(N5CCOCC5)cc4)nc23)ccc1OC1CCN(C=O)CC1` [Example 250, 2-((1-formylpiperidin-4-yl)oxy)-5-(8-(4-morpholinophenyl)-9H-purin-6-yl)benzonitrile]: the 50% inhibitory concentration (IC50) at TBK1 was found to be 2.25 nM; at IKKε it was 9.86 nM.

With `CS(=O)(=O)c1ccc(-c2cc3c(-c4ccc(OC5CCOCC5)c(C#N)c4)ccnc3[nH]2)cc1` [Example 42, 5-(2-(4-(methylsulfonyl)phenyl)-1H-pyrrolo[2,3-b]pyridin-4-yl)-2-((tetrahydro-2H-pyran-4-yl)oxy)benzonitrile], the half-maximal inhibitory concentration (IC50) at TBK1 stood at 3.75 nM; on IKKε it was 6.42 nM.

As to `N#Cc1cc(-c2ccnc3[nH]c(-c4ccc(N5CCOCC5)cc4)cc23)ccc1OC1CCN(C(=O)CN)CC1` [Example 152, 2-((1-(2-aminoacetyl)piperidin-4-yl)oxy)-5-(2-(4-morpholinophenyl)-1H-pyrrolo[2,3-b]pyridin-4-yl)benzonitrile], the IC50 is 5.96 nM at TBK1 and 18.4 nM at IKKε.

For the molecule `Cc1ccc(-c2ccnc3[nH]c(-c4ccc(N5CCOCC5)cc4)cc23)cc1C#N` [Example 69, 2-methyl-5-(2-(4-morpholinophenyl)-1H-pyrrolo[2,3-b]pyridin-4-yl)benzonitrile], the results for the IC50 on TBK1 and on IKKε were 79.7 nM and above 1000 nM, respectively.
